Numbered stars: 1 amine (or outer) side, 2 acyl side, 3 side chain; on linkers, the order of the positions; unused ones are H or OH. Bridge positions count the residues as written; N and C are the ends. Square brackets hold non-standard residues; d marks the D form. Peptide text beside a SMILES is read from it. X2 = CCCc1cccc2c(C[C@H](N[*:1])C(=O)[*:2])c[nH]c12; X1 = CCc1cccc2c(C[C@H](N[*:1])C(=O)[*:2])c[nH]c12; Trp(7-Me) = Cc1cccc2c(C[C@H](N)C(=O)O)c[nH]c12; Trp(1-Me) = Cn1cc(C[C@H](N)C(=O)O)c2ccccc21; 2Nal = N[C@@H](Cc1ccc2ccccc2c1)C(=O)O; AEF = NCCOc1ccc(C[C@H](N)C(=O)O)cc1; Cit = NC(=O)NCCC[C@H](N)C(=O)O; Pen = CC(C)(S)[C@H](N)C(=O)O; αMeK = C[C@](N)(CCCCN)C(=O)O; NMeA = CN[C@@H](C)C(=O)O; βAla = NCCC(=O)O
T1: IL-23R (Homo sapiens, UniProt Q5VWK5)
T1 sequence (Q5VWK5 24-629): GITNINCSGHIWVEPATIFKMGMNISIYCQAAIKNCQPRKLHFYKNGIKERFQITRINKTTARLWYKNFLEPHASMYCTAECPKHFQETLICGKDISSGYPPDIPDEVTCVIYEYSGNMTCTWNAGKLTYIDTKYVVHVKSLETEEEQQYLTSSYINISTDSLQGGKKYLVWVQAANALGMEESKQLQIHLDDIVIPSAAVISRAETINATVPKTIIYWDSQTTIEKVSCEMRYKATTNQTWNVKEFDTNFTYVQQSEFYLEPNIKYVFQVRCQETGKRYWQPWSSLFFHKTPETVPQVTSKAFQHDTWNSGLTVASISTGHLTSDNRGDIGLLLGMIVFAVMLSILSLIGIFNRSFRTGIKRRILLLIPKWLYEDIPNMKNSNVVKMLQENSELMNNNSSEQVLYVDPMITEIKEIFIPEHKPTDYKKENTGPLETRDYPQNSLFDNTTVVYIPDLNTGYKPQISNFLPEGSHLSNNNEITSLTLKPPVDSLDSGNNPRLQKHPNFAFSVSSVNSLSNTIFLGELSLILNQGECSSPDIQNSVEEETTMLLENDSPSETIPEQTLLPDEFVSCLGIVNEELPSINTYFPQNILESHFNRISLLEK

T2: IL-23R (human, UniProt Q5VWK5 24-629)
T2 sequence (looked up): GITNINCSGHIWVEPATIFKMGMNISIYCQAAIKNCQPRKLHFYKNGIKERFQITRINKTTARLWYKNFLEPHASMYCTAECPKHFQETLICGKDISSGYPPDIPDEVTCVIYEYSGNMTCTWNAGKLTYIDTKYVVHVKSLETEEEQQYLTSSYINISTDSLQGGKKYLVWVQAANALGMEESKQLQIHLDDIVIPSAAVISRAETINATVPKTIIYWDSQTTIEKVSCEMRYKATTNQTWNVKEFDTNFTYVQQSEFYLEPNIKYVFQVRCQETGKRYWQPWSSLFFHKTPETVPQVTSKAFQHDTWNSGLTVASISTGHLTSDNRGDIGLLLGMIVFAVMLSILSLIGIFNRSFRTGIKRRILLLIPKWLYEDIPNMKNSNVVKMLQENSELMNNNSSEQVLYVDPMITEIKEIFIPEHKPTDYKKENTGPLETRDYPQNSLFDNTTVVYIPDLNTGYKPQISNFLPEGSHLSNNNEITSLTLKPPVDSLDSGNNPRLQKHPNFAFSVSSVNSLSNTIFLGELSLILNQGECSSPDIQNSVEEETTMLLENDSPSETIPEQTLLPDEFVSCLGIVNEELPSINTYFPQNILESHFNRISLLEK


What was measured:
[1] = in vitro; type: in vitro ADME; parameters: half-life: dose or concentration left out as unconfirmed; conditions: simulated intestinal fluid (SIF) with pancreatin, pH 6.8, 37° C., § matrix is 100 fold dilution of standard SIF concentration, read-out: SIF t½ (converted)
[2] = in vitro; conditions: human, 20% fecal homogenate (supernatant), anaerobic, pH 6.8
[3] = in vitro; conditions: both, SD, rat, plasma (EDTA)
[4] = in vitro; conditions: cynomolgus monkey, 20% fecal homogenate (supernatant), anaerobic, pH 6.8
[5] = target: T1, IL-23R; experiment: DB cells IL23R pSTAT3 cell assay (pStat3 HTRF); type: cell-based; conditions: Table E3; DB cells, IL-23 0.5 nM, 30 minutes at 37° C.; read-out: pStat3 HTRF (IC50)
How it was run: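 DB cells (5×10E5/well, RPMI-1640 + 10% FBS) stimulated with 0.5 nM final IL-23 plus serially diluted test peptides for 30 min at 37 °C, 5% CO2. Phospho-STAT3 (Tyr705) in lysates measured by HTRF using a two-plate protocol.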

[6] = target: T2, IL-23R; experiment: cell-based or functional assay

pStat3 HTRF (nM) IC50 [6] [nM] | Molecule | half-life [1] [h] | half-life at 20 μM [2] [h] | half-life at 20 μM [3] [h] | half-life at 20 μM [4] [h] | IC50 [5] [nM]
– | CC(=O)NCCCC[C@H](NC(=O)[C@](C)(CCCCN)NC(=O)[C@H](Cc1ccc2ccccc2c1)NC(=O)[C@H](Cc1ccc(OCCN)cc1)NC(=O)[C@H]1NC(=O)[C@H](CCCNC(N)=O)NC(=O)[C@H](Cc2c[nH]c3c(C)cccc23)NC(=O)[C@H]([C@@H](C)O)NC(=O)[C@H](CC(N)=O)NC(=O)[C@@H](NC(C)=O)C(C)(C)SSC1(C)C)C(=O)NCCC(=O)NCCC(N)=O [compound 268] (Ac-[Pen]NT[Trp(7-Me)][Cit][Pen][AEF][2Nal][αMeK]K(Ac)[βAla][βAla]-NH2; disulfide 1-6) | 15 | > 24 | > 24 | > 24 | 1 to 10
– | CC(=O)NCCCC[C@H](NC(=O)C1(NC(=O)[C@H](Cc2ccc3ccccc3c2)NC(=O)[C@H](Cc2ccc(OCCN)cc2)NC(=O)[C@H]2NC(=O)[C@H](CCC(N)=O)NC(=O)[C@H](Cc3c[nH]c4c(C)cccc34)NC(=O)[C@H]([C@@H](C)O)NC(=O)[C@H](CC(N)=O)NC(=O)[C@@H](NC(C)=O)C(C)(C)SSC2(C)C)CCCCC1)C(=O)N[C@@H](CC(N)=O)C(=O)NCCC(N)=O [compound 274] | 5 | > 24 | 5 | 4 | < 1
– | CCC(CC)(NC(=O)[C@H](Cc1ccc2ccccc2c1)NC(=O)[C@H](Cc1ccc(OCCN)cc1)NC(=O)[C@H]1NC(=O)[C@H](CCC(N)=O)NC(=O)[C@H](Cc2c[nH]c3c(C)cccc23)NC(=O)[C@H]([C@@H](C)O)NC(=O)[C@H](CC(N)=O)NC(=O)[C@@H](NC(C)=O)C(C)(C)SSC1(C)C)C(=O)N[C@@H](CCCCNC(C)=O)C(=O)N[C@@H](CC(N)=O)C(=O)NCCC(N)=O [compound 276] | 13 | > 24 | 5 | 13 | < 1
– | CC(=O)N[C@@H]1C(=O)N[C@@H](CC(N)=O)C(=O)N[C@@H]([C@@H](C)O)C(=O)N[C@@H](Cc2c[nH]c3c(C)cccc23)C(=O)N[C@@H](CCC(N)=O)C(=O)N[C@H](C(=O)N[C@@H](Cc2ccc(OCCN)cc2)C(=O)N[C@@H](Cc2ccc3ccccc3c2)C(=O)N[C@@](C)(CCCCN)C(=O)N[C@@H](CCCNC(N)=O)C(=O)NCCC(=O)NCCC(N)=O)C(C)(C)SSC1(C)C [compound 279] | 7 | > 24 | > 24 | > 24 | 1 to 10
– | CC(=O)NCCCC[C@H](NC(=O)[C@](C)(CCCCN)NC(=O)[C@H](Cc1ccc2ccccc2c1)NC(=O)[C@H](Cc1ccc(OCCN)cc1)NC(=O)[C@H]1NC(=O)[C@H](CCCNC(N)=O)NC(=O)[C@H](Cc2cn(C)c3ccccc23)NC(=O)[C@H]([C@@H](C)O)NC(=O)[C@H](CC(N)=O)NC(=O)[C@@H](NC(C)=O)C(C)(C)SSC1(C)C)C(=O)NCCC(=O)NCCC(N)=O [compound 280] (Ac-[Pen]NT[Trp(1-Me)][Cit][Pen][AEF][2Nal][αMeK]K(Ac)[βAla][βAla]-NH2; disulfide 1-6) | 8 | > 24 | > 24 | > 24 | 10 to 100
– | CCc1cccc2c(C[C@@H]3NC(=O)[C@H]([C@@H](C)O)NC(=O)[C@H](CC(N)=O)NC(=O)[C@@H](NC(C)=O)C(C)(C)SSC(C)(C)[C@@H](C(=O)N[C@@H](Cc4ccc(OCCN)cc4)C(=O)N[C@@H](Cc4ccc5ccccc5c4)C(=O)N[C@@](C)(CCCCN)C(=O)N[C@@H](CCCCNC(C)=O)C(=O)N[C@@H](CC(N)=O)C(=O)N[C@H](CC(C)C)C(N)=O)NC(=O)[C@H](CCCCNC(C)=O)NC3=O)c[nH]c12 [compound 284] (Ac-[Pen]NT[X1]K(Ac)[Pen][AEF][2Nal][αMeK]K(Ac)N[dL]-NH2; disulfide 1-6) | 2 | > 24 | > 24 | > 24 | < 1
– | CCCc1cccc2c(C[C@@H]3NC(=O)[C@H]([C@@H](C)O)NC(=O)[C@H](CC(N)=O)NC(=O)[C@@H](NC(C)=O)C(C)(C)SSC(C)(C)[C@@H](C(=O)N[C@@H](Cc4ccc(OCCN)cc4)C(=O)N[C@@H](Cc4ccc5ccccc5c4)C(=O)N[C@@](C)(CCCCN)C(=O)N[C@@H](CCCCNC(C)=O)C(=O)N[C@@H](CC(N)=O)C(=O)N[C@H](CC(C)C)C(N)=O)NC(=O)[C@H](CCCCNC(C)=O)NC3=O)c[nH]c12 [compound 285] (Ac-[Pen]NT[X2]K(Ac)[Pen][AEF][2Nal][αMeK]K(Ac)N[dL]-NH2; disulfide 1-6) | 9 | > 24 | > 24 | > 24 | < 1
– | COc1cccc2c(C[C@@H]3NC(=O)[C@H]([C@@H](C)O)NC(=O)[C@H](CC(N)=O)NC(=O)[C@@H](NC(C)=O)C(C)(C)SSC(C)(C)[C@@H](C(=O)N[C@@H](Cc4ccc(OCCN)cc4)C(=O)N[C@@H](Cc4ccc5ccccc5c4)C(=O)N[C@@](C)(CCCCN)C(=O)N[C@@H](CCCCNC(C)=O)C(=O)N[C@@H](CC(N)=O)C(=O)N[C@H](CC(C)C)C(N)=O)NC(=O)[C@H](CCCCNC(C)=O)NC3=O)c[nH]c12 [compound 288] | 12 | > 24 | > 24 | > 24 | 1 to 10
– | CC(=O)NCCCC[C@@H]1NC(=O)[C@H](Cc2c[nH]c3c(C)cccc23)NC(=O)[C@H]([C@@H](C)O)NC(=O)[C@H](CC(N)=O)NC(=O)[C@@H](NC(C)=O)C(C)(C)SSC(C)(C)[C@@H](C(=O)N[C@@H](Cc2ccc3ccccc3c2)C(=O)N[C@@H](Cc2ccc3ccccc3c2)C(=O)N[C@@](C)(CCCCN)C(=O)N[C@@H](CCCCNC(C)=O)C(=O)N[C@@H](CC(N)=O)C(=O)N[C@H](CC(C)C)C(N)=O)NC1=O [compound 289] (Ac-[Pen]NT[Trp(7-Me)]K(Ac)[Pen][2Nal][2Nal][αMeK]K(Ac)N[dL]-NH2; disulfide 1-6) | 12 | > 24 | > 24 | > 24 | 1 to 10
– | CC(=O)NCCCC[C@@H]1NC(=O)[C@H](Cc2c[nH]c3c(C)cccc23)NC(=O)[C@H]([C@@H](C)O)NC(=O)[C@H](CC(N)=O)NC(=O)[C@@H](NC(C)=O)C(C)(C)SSC(C)(C)[C@@H](C(=O)N[C@@H](Cc2c[nH]cn2)C(=O)N[C@@H](Cc2ccc3ccccc3c2)C(=O)N[C@@](C)(CCCCN)C(=O)N[C@@H](CCCCNC(C)=O)C(=O)N[C@@H](CC(N)=O)C(=O)N[C@H](CC(C)C)C(N)=O)NC1=O [compound 290] (Ac-[Pen]NT[Trp(7-Me)]K(Ac)[Pen]H[2Nal][αMeK]K(Ac)N[dL]-NH2; disulfide 1-6) | 16 | > 24 | > 24 | > 24 | 1 to 10
> 100 | Ac-[Pen]NT[Trp(2,5,7-tritBu)]Q[Pen][AEF][2Nal][αMeK]K(Ac)N[βAla]-NH2 (disulfide 1-6) [SEQ ID NO: 233] | – | – | – | – | –
< 1 | Ac-[Pen]NT[Trp(7-Me)][Cit][Pen][AEF][2Nal][αMeK]K(Ac)N[dR]-NH2 (disulfide 1-6 (inferred)) [SEQ ID NO: 256] | – | – | – | – | –
< 1 | Ac-[Pen]NT[Trp(7-Me)][Cit][Pen][AEF][2Nal][αMeK]K(Ac)N[dT]-NH2 (disulfide 1-6 (inferred)) [SEQ ID NO: 263] | – | – | – | – | –
< 1 | Ac-[Pen]NT[Trp(7-Me)][Cit][Pen][AEF][2Nal][αMeK]K(Ac)NS-NH2 (disulfide 1-6 (inferred)) [SEQ ID NO: 260] | – | – | – | – | –
< 1 | XNTXKXXXXKNX (Ac-[Pen]-NT-[W(7-Me)]-[Lys(Ac)]-[Pen]-Phe[4-(2-aminoethoxy)]-[2-Nal]-[a-MeLys]-[Lys(Ac)]-N-[Cit]-NH2; Pen-Pen disulfide) [SEQ ID NO: 249] | – | – | – | – | –
< 1 | Ac-[Pen]NT[Trp(7-Me)][Cit][Pen][AEF][2Nal][αMeK]K(Ac)N[NMeA]-NH2 (disulfide 1-6; not fully specified; printed as Ac-[Pen]-NT-[W(7-Me)]-[Cit]-[Pen]-Phe[4-(2-aminoethoxy)]-[2-Nal]-[a-MeLys]-[Lys(Ac)]-[N-MeAla]-NH2) [SEQ ID NO: 265] | – | – | – | – | –
< 1 | XNTXQXXXXKNX (Ac-[Pen]-N-T-[W(7-Me)]-Q-[Pen]-Phe[4-(2-aminoethoxy)]-[2-Nal]-[Achc]-[Lys(Ac)]-N-[bA]-NH2; Pen-Pen disulfide) [SEQ ID NO: 274] | – | – | – | – | –
< 1 | XNTXQXXXXKNX (Ac-[Pen]-N-T-[W(7-Me)]-Q-[Pen]-Phe[4-(2-aminoethoxy)]-[2-Nal]-[DiethylGly]-[Lys(Ac)]-N-[bA]-NH2; Pen-Pen disulfide) [SEQ ID NO: 276] | – | – | – | – | –

From patent US20260116921A1, “PEPTIDE INHIBITORS OF INTERLEUKIN-23 RECEPTOR AND THEIR USE TO TREAT INFLAMMATORY DISEASES” (priority 2018, published 2026)
